We go through 1 compound from patent US10736317B2, “Composition having sex pheromone activity on San Jose scale, and attractant, mating disruptant, attraction method and mating disruption method for San Jose scale” (SHIN-ETSU CHEMICAL CO., LTD., priority 2017, dated 2020).

In this assay the test system is SJS male adult insects. The experiment in a line: SJS attraction test (white adhesive trap, orchard). The class given is in vivo, Quadraspidiotus perniciosus (San Jose scale). The following applies: conclusion from trap captures. An excerpt: <Evaluation of Sex Pheromone Activity (SJS Attraction Test)> A white adhesive trap was used for evaluation of the sex pheromone activity. […] An adhesive material was applied over the bottom plate, and the attractant, which is shown as “A” in FIG. 1, was placed directly on the adhesive surface. In other words, it is configured to capture only insects that have approached the attractant, whereby keeping unintentional admission of insects as low as possible. In a period of from Jun. 30 to Oct. 2, 2015, the traps, each having one of the attractants, were placed in an orchard where SJS had inhabited. The number of male adult insects captured in each trap was measured for every 7 days. At every measurement, the installation places of the respective traps were changed by rotation of 13 places in total, in order to minimize the effects of installation environment on the number of capture.

For `C=C(C)CCCC(C)CCOC(=O)CC` (stereo not shown) [3,7-dimethyl-7-octenyl propionate], the “sex pheromone activity on the SJS” value is “has a sex pheromone activity on the SJS”.
